Experimental data published in US9198906B2, “Ketoconazole enantiomer in humans” (Cortendo AB (publ), priority 2006, dated 2015).

Columns and labels:
[1] = tested on: patients with type 2 diabetes mellitus; assay: Phase 2a trial, continuous blood pressure monitoring; format: in vivo, human; conditions: Visits 1 and 3, 14 daily doses
Description: (§1) Five (5) dose groups were studied.
Continuous blood pressure monitoring was performed during Visits 1 and 3.

[2] = molecular target: T1, 14a-lanosterol demethylase (Rattus norvegicus, UniProt Q64654); conditions: compared with the other (2R,4S) enantiomer; Rotstein et al. 1992; cited from earlier work
T1 sequence (Q64654 1-503): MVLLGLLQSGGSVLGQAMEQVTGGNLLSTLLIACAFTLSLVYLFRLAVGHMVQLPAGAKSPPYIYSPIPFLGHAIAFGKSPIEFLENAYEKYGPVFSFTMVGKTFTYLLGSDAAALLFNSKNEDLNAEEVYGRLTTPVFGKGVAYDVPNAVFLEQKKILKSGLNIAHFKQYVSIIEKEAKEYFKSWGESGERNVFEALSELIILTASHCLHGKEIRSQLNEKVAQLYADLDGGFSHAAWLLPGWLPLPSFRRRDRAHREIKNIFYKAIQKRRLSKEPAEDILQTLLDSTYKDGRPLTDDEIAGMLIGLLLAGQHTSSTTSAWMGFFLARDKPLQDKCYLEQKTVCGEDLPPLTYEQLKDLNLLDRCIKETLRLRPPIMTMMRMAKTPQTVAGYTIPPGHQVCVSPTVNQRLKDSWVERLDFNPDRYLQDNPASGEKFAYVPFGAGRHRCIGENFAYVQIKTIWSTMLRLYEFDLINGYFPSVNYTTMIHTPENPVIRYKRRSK

[3] = tested on: patients with type 2 diabetes mellitus; assay: Phase 2a trial, LDL cholesterol; format: in vivo, human; conditions: for LDL cholesterol Visit 1 mean: Visit 1 (baseline, before first dose); for LDL cholesterol Mean % change / LDL cholesterol change mean / LDL cholesterol Visit 3 mean: 14 daily doses; for LDL cholesterol Visit 3 mean: Visit 3 (Day 15)
Description: as §1
(§2) The first dose of the study drug was given on Day 1 at 2200 h. Activity markers measured on Day 1 prior to administration of the drug (“Visit 1”). The last dose of study drug was given on Day 14 at 2200 h and activity markers measured on Day 15 (“Visit 3”). Measurements of safety markers were taken on Visits 1 and 3, as well as Visit 2 (Day 8) and Visit 4 (Day 28).

[4] = tested on: patients with type 2 diabetes mellitus; assay: Phase 2a trial, liver function tests (AST/ALT/AP)
Description: as §2

[5] = tested on: patients with type 2 diabetes mellitus; assay: Phase 2a trial, fructosamine (glycemic control); format: in vivo, human; conditions: for Fructosamine Visit 1 mean: Visit 1 (baseline, before first dose); for Fructosamine Change vs Baseline mean / Fructosamine Visit 3 mean: 14 daily doses; for Fructosamine Visit 3 mean: Visit 3 (Day 15)
Description: as §1, §2
Fructosamine levels were measured at baseline and after two weeks of therapy (see Table 4 and FIGS. 1 and 2). […] Fructosamine levels reflect blood glucose levels over the preceding 2-3 weeks.

[6] = tested on: patients with type 2 diabetes mellitus; assay: Phase 2a trial, HbA1c (glycemic control); format: in vivo, human; conditions: for Visit 1 HbA1c mean: Visit 1 (Day 1, before first dose, baseline); for HbA1c Change vs Baseline mean / Visit 3 HbA1c mean: 14 daily doses; for Visit 3 HbA1c mean: Visit 3 (Day 15)
Description: as §1, §2
This test measure levels of glycated hemoglobin and reflects the average blood glucose level for a subject over the preceding 3 months (approximately). Elevated levels are common in diabetics. Lowering the hemoglobin A1c number can delay or prevent the development of serious eye, kidney, and nerve disease in individuals with diabetes.

[7] = plasma; Beagle dogs, racemic ketoconazole 30 mg/dog intravenous bolus
Description: The pharmacokinetics of each of the ketoconazole enantiomers was studied following intravenous administration of racemic ketoconazole. Racemic ketoconazolewas dissolved in ethanol to 60 mg/ml. Each of three Beagle dogs was administered 0.5 ml bolus (30 mg/dog) intravenously.
Blood was collected from each dog prior to dosing (“0 min”) and at 2, 5, 10, 15, 30 min, and 1, 2, 4, 6, 8, and 24 hrs post-dosing. At each timepoint, blood (0.3 mL/sample) was collected and placed into labeled Microtainer® tubes with heparin as the anti-coagulant. The heparinized blood was centrifuged, and the supernatant pipetted off into another set of labeled Eppendorf® tubes. The derived plasma samples were analyzed for each of the two ketoconazole enantiomers (2S,4R and 2R,4S) and pharmacokinetic parameters determined for each of the enantiomers.

[8] = tested on: patients with type 2 diabetes mellitus; assay: Phase 2a trial, fasting glucose; conditions: two weeks of treatment
Description: The secondary objective was to determine the pharmacokinetic (PK) profile in plasma of the 2S,4R enantiomer after a single dosing and after fourteen daily doses. In addition the pharmacodynamic activity of fourteen daily doses of the 2S,4R enantiomer, as reflected by changes in blood pressure, total and LDL cholesterol, CRP, plasma and salivary cortisol, cortisol binding globulin, measures of glycemic control (fructosamine, HbA1c and fasting blood glucose levels).
Five (5) dose groups were studied. The dose groups are as follows (N=subjects who completed the study):

[9] = tested on: patients with type 2 diabetes mellitus; assay: Phase 2a trial, C-reactive protein (marker of inflammation); format: in vivo, human; conditions: for C-Reactive Protein (CRP) Visit 1 mean: Visit 1 (baseline, before first dose); for C-Reactive Protein (CRP) Visit 3 mean: Visit 3 (Day 15)
Description: as §1, §2

[10] = tested on: patients with type 2 diabetes mellitus; assay: Phase 2a trial, total cholesterol; format: in vivo, human; conditions: for Total cholesterol Visit 1 mean: Visit 1 (baseline, before first dose); for Total cholesterol Change mean / Total cholesterol Mean % change / Total cholesterol Visit 3 mean: 14 daily doses; for Total cholesterol Visit 3 mean: Visit 3 (Day 15)
Description: as §1, §2

[11] = Subject 02-002, 200 mg DIO-902, Screening Visit
[12] = Subject 02-002, 200 mg DIO-902, Visit 1 (pre-1st dose)
[13] = Subject 02-002, 200 mg DIO-902, Visit 2
[14] = Subject 02-002, 200 mg DIO-902, Visit 3 (last dose)
[15] = Subject 04-004, 400 mg DIO-902, Screening Visit
[16] = Subject 04-004, 400 mg DIO-902, Visit 1 (pre-1st dose)
[17] = Subject 04-004, 400 mg DIO-902, Visit 2
[18] = Subject 04-004, 400 mg DIO-902, Visit 3 (last dose)
[19] = Subject 04-010, 400 mg DIO-902, Screening Visit
[20] = Subject 04-010, 400 mg DIO-902, Visit 1 (pre-1st dose)
[21] = Subject 04-010, 400 mg DIO-902, Visit 2
[22] = Subject 04-010, 400 mg DIO-902, Visit 3 (last dose)

2S,4R ketoconazole [DIO-902]
effect on blood pressure readings [1]: no reductions
activity against 14a-lanosterol demethylase [2]: more active
LDL cholesterol Visit 1 mean ([3]; 200 mg po QD group): 141.60 mg/dL
LDL cholesterol Mean % change ([3]; 200 mg po QD): −11.39%
LDL cholesterol change mean ([3]; 200 mg po QD): -17.20 mg/dL
LDL cholesterol Visit 3 mean ([3]; 200 mg po QD): 124.40 mg/dL
LDL cholesterol Visit 1 mean ([3]; 400 mg po QD group): 133.33 mg/dL
LDL cholesterol Mean % change ([3]; 400 mg po QD): −27.44%
LDL cholesterol change mean ([3]; 400 mg po QD): -35.50 mg/dL
LDL cholesterol Visit 3 mean ([3]; 400 mg po QD): 97.83 mg/dL
LDL cholesterol Visit 1 mean ([3]; 600 mg po QD group): 125.67 mg/dL
LDL cholesterol Mean % change ([3]; 600 mg po QD): −42.14%
LDL cholesterol change mean ([3]; 600 mg po QD): -41.25 mg/dL
LDL cholesterol Visit 3 mean ([3]; 600 mg po QD): 70.67 mg/dL
effect on LDL-C ([3]; two-week administration): Statistically significant, dose dependent decreases
evidence of hepatotoxicity ([4]; 14 daily doses): not observed
ALT [4, 11]: 30 u/L
AP [4, 11]: 110 u/L
AST [4, 11]: 58 u/L
ALT [4, 12]: 22 u/L
AP [4, 12]: 100 u/L
AST [4, 12]: 34 u/L
ALT [4, 13]: 21 u/L
AP [4, 13]: 103 u/L
AST [4, 13]: 30 u/L
ALT [4, 14]: 19 u/L
AP [4, 14]: 97 u/L
AST [4, 14]: 35 u/L
ALT [4, 15]: 25 u/L
AP [4, 15]: 132 u/L
AST [4, 15]: 48 u/L
ALT [4, 16]: 25 u/L
AP [4, 16]: 108 u/L
AST [4, 16]: 49 u/L
ALT [4, 17]: 28 u/L
AP [4, 17]: 125 u/L
AST [4, 17]: 49 u/L
ALT [4, 18]: 25 u/L
AP [4, 18]: 130 u/L
AST [4, 18]: 46 u/L
ALT [4, 19]: 27 u/L
AP [4, 19]: 73 u/L
AST [4, 19]: 49 u/L
ALT [4, 20]: 24 u/L
AP [4, 20]: 60 u/L
AST [4, 20]: 48 u/L
ALT [4, 21]: 14 u/L
AP [4, 21]: 82 u/L
AST [4, 21]: 40 u/L
ALT [4, 22]: 19 u/L
AP [4, 22]: 64 u/L
AST [4, 22]: 38 u/L
liver function test values outside the normal range at baseline (hepato-protection, words) ([4]; two patients): normalized
Fructosamine Visit 1 mean ([5]; 200 mg po QD group): 262 µmol/L
Fructosamine Change vs Baseline mean ([5]; 200 mg po QD): -12.20 µmol/L
Fructosamine Visit 3 mean ([5]; 200 mg po QD): 249.80 µmol/L
Fructosamine Visit 1 mean ([5]; 400 mg po QD group): 271.00 µmol/L
Fructosamine Change vs Baseline mean ([5]; 400 mg po QD): -8.33 µmol/L
Fructosamine Visit 3 mean ([5]; 400 mg po QD): 262.67 µmol/L
Fructosamine Visit 1 mean ([5]; 600 mg po QD group): 276.33 µmol/L
Fructosamine Change vs Baseline mean ([5]; 600 mg po QD): -29.33 µmol/L
Fructosamine Visit 3 mean ([5]; 600 mg po QD): 247.00 µmol/L
effect on fructosamine ([5]; administration for 14 days): trends toward a reduction
Visit 1 HbA1c mean ([6]; 200 mg po QD group): 8.18%
HbA1c Change vs Baseline mean ([6]; 200 mg po QD): −0.32%
Visit 3 HbA1c mean ([6]; 200 mg po QD): 7.86%
Visit 1 HbA1c mean ([6]; 400 mg po QD group): 7.88%
HbA1c Change vs Baseline mean ([6]; 400 mg po QD): −0.18%
Visit 3 HbA1c mean ([6]; 400 mg po QD): 7.70%
Visit 1 HbA1c mean ([6]; 600 mg po QD group): 9.10%
HbA1c Change vs Baseline mean ([6]; 600 mg po QD): −0.47%
Visit 3 HbA1c mean ([6]; 600 mg po QD): 8.63%
effect on HbA1c ([6]; administration for 14 days): trends toward a reduction
clearance [7]: 8.08 mL/min/kg
terminal half life [7]: 1.397 h
Reductions in fasting glucose levels [8]: up to 15 mg/dL
C-Reactive Protein (CRP) Visit 1 mean ([9]; 200 mg po QD group): 6.91 mg/L
CRP Mean % change vs baseline ([9]; 200 mg po QD, 14 daily doses): −19.8%
C-Reactive Protein (CRP) Visit 3 mean ([9]; 200 mg po QD, 14 daily doses): 4.78 mg/L
C-Reactive Protein (CRP) Visit 1 mean ([9]; 400 mg po QD group): 4.02 mg/L
CRP Mean % change vs baseline ([9]; 400 mg po QD, 14 daily doses): −27.35%
C-Reactive Protein (CRP) Visit 3 mean ([9]; 400 mg po QD, 14 daily doses): 2.95 mg/L
C-Reactive Protein (CRP) Visit 1 mean ([9]; 600 mg po QD group): 8.35 mg/L
CRP Mean % change vs baseline ([9]; 600 mg po QD, 14 daily doses): −48.64%
C-Reactive Protein (CRP) Visit 3 mean ([9]; 600 mg po QD, 14 daily doses): 5.05 mg/L
effect on CRP ([9]; 14 daily doses): dose-dependent decrease
Total cholesterol Visit 1 mean ([10]; 200 mg po QD group): 227.20 mg/dL
Total cholesterol Change mean ([10]; 200 mg po QD): -26.10 mg/dL
Total cholesterol Mean % change ([10]; 200 mg po QD): −11.66%
Total cholesterol Visit 3 mean ([10]; 200 mg po QD): 202.45 mg/dL
Total cholesterol Visit 1 mean ([10]; 400 mg po QD group): 224.50 mg/dL
Total cholesterol Change mean ([10]; 400 mg po QD): -34.00 mg/dL
Total cholesterol Mean % change ([10]; 400 mg po QD): −15.35%
Total cholesterol Visit 3 mean ([10]; 400 mg po QD): 190.50 mg/dL
Total cholesterol Visit 1 mean ([10]; 600 mg po QD group): 195.33 mg/dL
Total cholesterol Change mean ([10]; 600 mg po QD): -48.75 mg/dL
Total cholesterol Mean % change ([10]; 600 mg po QD): −29.97%
Total cholesterol Visit 3 mean ([10]; 600 mg po QD): 130.33 mg/dL
effect on total cholesterol ([10]; two-week administration): Statistically significant, dose dependent decreases

CC(=O)N1CCN(c2ccc(OC[C@H]3CO[C@](Cn4ccnc4)(c4ccc(Cl)cc4Cl)O3)cc2)CC1 (single isomer, unassigned) [2R,4S ketoconazole enantiomer, reference compound]
clearance [7]: 24.03 mL/min/kg
terminal half life [7]: 0.93 h
